Laboratory results from patent publication US10064885B2, “Metabolic gene, enzyme, and flux targets for cancer therapy” (Massachusetts Institute of Technology, priority 2010, dated 2018).

Columns and labels:
Format in all cases: cell-based, human
A549 cells [1] = test: 13C Metabolic Flux Analysis (MFA) of A549 cells expressing IDH1-targeting shRNAs, [U-13C5]glutamine tracer
Procedure: (§1) Cell Culture, Isotopic Labeling, and Hypoxia. All cell lines were cultured in Dulbecco's Modified Eagle Medium (DMEM; Mediatech) containing 10% fetal bovine serum (FBS; Invitrogen) and 100 U/ml penicillin/streptomycin (P/S; Mediatech) unless otherwise mentioned. Cell lines were obtained from ATCC unless otherwise noted. The VC3 glioma cell line was provided by Tim Lautenschlaeger (Ohio State University), MDA-MB-231 and HCT116 cell lines were provided by Ferdinando Chiaradonna (University of Milano-Bicocca), MRC5 cells were provided by Stephen Lippard (MIT), SN12C, ACHN, and 786-O cells were provided by Kevin Courtney and Lew Cantley (Harvard Medical School), and MCF10A cells were provided by Joan Brugge (Harvard Medical School), and Huh7 cells were provided by Mike Hemann (MIT). MCF10A cells were cultured in custom DMEM/F12 (Hyclone) containing 5% horse serum, 20 ng/ml EGF, 10 μg/ml insulin, 100 ng/ml cholera toxin, 0.5 mg/ml hydrocortisone, 100 U/ml penicillin/streptomycin, and labeled/unlabeled glucose and glutamine at 18 mM and 2.5 mM, respectively. PRC3, WT8, pTV, and pTR cell lines were subcloned from the 786-O cell line as previously described (42, 43). For isotopic labeling experiments, cells were cultured in 6 well plates in glucose- and glutamine-free DMEM (Sigma) containing 10% dialyzed FBS (Invitrogen), 100 U/ml P/S, naturally labeled glucose or glutamine, and the appropriate tracer, including [U-^13C5]glutamine (Isotec), [5-^13C]glutamine (C/D/N Isotopes), [1-^13C]glutamine, [U-^13C6]glucose, [1,2-^13C2]glucose (all from Cambridge Isotope Labs). Steady state labeling of organic and amino acids was accomplished by culturing subconfluent cells in tracer medium for 24 hours. Labeling of fatty acids for Isotopomer Spectral Analysis (USA) was conducted over 3-5 days of culture in an excess of tracer medium (3-4 ml/well in a 6 well plate) to prevent nutrient depletion. Hypoxic culture was conducted by feeding a custom mixture of 1% O2, 5% CO2, and 94% N2 to a standard incubator controlled at 5% CO2. HEPES (Mediatech) was added to the culture medium at 20 mM to maintain pH between normoxic and hypoxic cultures. The internal gas content was monitored using Fyrite gas analyzers (Bacharach) for CO2 and O2. O2 levels were confirmed at 1.5-2% during hypoxic culture.
Stable cell cultures with decreased IDH1 and IDH2 expression were generated via lentiviral-mediated shRNA expression. pLKO.1 lentiviral vectors targeting IDH1 with shRNA sequences of […] TT (IDH1a; TRCN0000027298; SEQ ID NO:1) and […] TT (IDH1b; TRCN0000027289; SEQ ID NO:2), IDH2 with shRNA sequence […] TT (TRCN0000027225; SEQ ID NO:3). For controls, either non-targeting control shRNA (SHC002; Sigma) or pLKO.1 scrambled control vector (44)(Addgene) were used. pLKO.1 vector targeting ARNT with shRNA sequence […] TT (TRCN0000003819; SEQ ID NO:4) was obtained from Open Biosystems.
HEK293T cells were co-transfected with pLKO.1 vectors and packaging plasmids to produce lentivirus. Filtered supernatants were used for infection, and cells were selected with puromycin (2 μg/ml) for at least two passages before initiating tracer and flux experiments.
Metabolite Extraction and Gas Chromatography/Mass Spectrometry (GC/MS) Analysis. At the conclusion of culture, cells were rinsed with 1 ml ice cold PBS and quenched with 0.4 ml ice cold methanol. An equal volume of water was added, and cells were collected in tubes by scraping with a pipette. One volume of ice cold chloroform was added to each tube, and the extracts were vortexed at 4° C. for 30 minutes. Samples were centrifuged at 14,000 g for 5 minutes at room temperature. For analysis of polar metabolites, the aqueous phase was transferred to a new tube for evaporation under airflow. For ISA experiments, the non-polar fraction was collected and evaporated under airflow. In some ISA experiments, cells were trypsinized, counted, and pelleted prior to lipid extraction as described above. […]

A549 cells [2] = test: Reductive glutamine metabolism by isotopic labeling and GC/MS in A549 cells expressing shRNAs; settings: [U-13C5]glutamine, aspartate, malate, fumarate
Procedure: as §1, with “Labeling of fatty acids for Isotopomer Spectral Analysis (USA) was conducted over 3-5 days of culture in an excess of tracer medium (3-4 ml/well in a 6 well plate) to prevent nutrient depletion. Hypoxic culture was conducted by feeding a custom mixture of 1% O2, 5% CO2, and 94% N2 to a standard incubator controlled at 5% CO2. HEPES (Mediatech) was added to the culture medium at 20 mM to maintain pH between normoxic and hypoxic cultures.” left out, “O2 levels were confirmed at 1.5-2% during hypoxic culture.” left out
(§2) Metabolite Extraction and Gas Chromatography/Mass Spectrometry (GC/MS) Analysis. […] In some ISA experiments, cells were trypsinized, counted, and pelleted prior to lipid extraction as described above. […]

HCT116 colon carcinoma = test: Reductive carboxylation by [1-13C]glutamine labeling and GC/MS in HCT116 cells expressing shRNAs
Procedure: as §1, with “Labeling of fatty acids for Isotopomer Spectral Analysis (USA) was conducted over 3-5 days of culture in an excess of tracer medium (3-4 ml/well in a 6 well plate) to prevent nutrient depletion. Hypoxic culture was conducted by feeding a custom mixture of 1% O2, 5% CO2, and 94% N2 to a standard incubator controlled at 5% CO2. HEPES (Mediatech) was added to the culture medium at 20 mM to maintain pH between normoxic and hypoxic cultures.” left out, “O2 levels were confirmed at 1.5-2% during hypoxic culture.” left out
as §2

[3] = test system: MDA-MB-231 breast carcinoma; test: Reductive carboxylation by [1-13C]glutamine labeling and GC/MS in MDA-MB-231 cells expressing shRNAs
Procedure: as §1, with “Labeling of fatty acids for Isotopomer Spectral Analysis (USA) was conducted over 3-5 days of culture in an excess of tracer medium (3-4 ml/well in a 6 well plate) to prevent nutrient depletion. Hypoxic culture was conducted by feeding a custom mixture of 1% O2, 5% CO2, and 94% N2 to a standard incubator controlled at 5% CO2. HEPES (Mediatech) was added to the culture medium at 20 mM to maintain pH between normoxic and hypoxic cultures.” left out, “O2 levels were confirmed at 1.5-2% during hypoxic culture.” left out
as §2

143B osteosarcoma = test: Reductive carboxylation by [1-13C]glutamine labeling and GC/MS in 143B cells expressing shRNAs
Procedure: Cell Culture, Isotopic Labeling, and Hypoxia. All cell lines were cultured in Dulbecco's Modified Eagle Medium (DMEM; Mediatech) containing 10% fetal bovine serum (FBS; Invitrogen) and 100 U/ml penicillin/streptomycin (P/S; Mediatech) unless otherwise mentioned. Cell lines were obtained from ATCC unless otherwise noted. The VC3 glioma cell line was provided by Tim Lautenschlaeger (Ohio State University), MDA-MB-231 and HCT116 cell lines were provided by Ferdinando Chiaradonna (University of Milano-Bicocca), MRC5 cells were provided by Stephen Lippard (MIT), SN12C, ACHN, and 786-O cells were provided by Kevin Courtney and Lew Cantley (Harvard Medical School), and MCF10A cells were provided by Joan Brugge (Harvard Medical School), and Huh7 cells were provided by Mike Hemann (MIT). MCF10A cells were cultured in custom DMEM/F12 (Hyclone) containing 5% horse serum, 20 ng/ml EGF, 10 μg/ml insulin, 100 ng/ml cholera toxin, 0.5 mg/ml hydrocortisone, 100 U/ml penicillin/streptomycin, and labeled/unlabeled glucose and glutamine at 18 mM and 2.5 mM, respectively. […] The internal gas content was monitored using Fyrite gas analyzers (Bacharach) for CO2 and O2. […]
as §2

[4] = test system: Hypoxia response element- (HRE-) driven reporter; test: Hypoxia response element (HRE)-driven reporter in HCT116 cells expressing IDH1-targeting shRNAs; settings: normal culture, hypoxia, or 1 mM DMOG, 18 hours
Procedure: Luciferase Assays. Subconfluent cells in 6 well plates were co-transfected with 1 μg of a firefly luciferase vector and 50 ng Renilla luciferase vector (pRL-TK; Promega) using Fugene 6 reagent. The ODD-Luciferase and Luciferase vectors were obtained from Addgene and based off of the pcDNA3.1 vector (49). Hypoxia responsive element-luciferase (HRE-Luc) vectors were used as described (50). Approximately 24 hours after transfection, medium was changed and cells were placed under normoxia, hypoxia, or treated with 1 mM dimethyloxalylglycine (DMOG). After 18 hours of treatment, cells were lysed and luciferase activity was determined using the Dual Luciferase Reporter Assay system (Promega) according to the manufacturer's instructions.

[5] = Anaplerotic reactions, exchange flux
[6] = Anaplerotic reactions, net flux
[7] = Pentose Phosphate Pathway, exchange flux
[8] = Pentose Phosphate Pathway, net flux

CCGGCGAATCATTTGGGAATTGATTCTCGAGAATCAATTCCCAAATGATTCGTTT TT (CCGGCGAATCATTTGGGAATTGATTCTCGAGAATCAATTCCCAAATGATTCGTTTTT; expressed or natural sequence) [IDH1b, pLKO.1 lentiviral vector shRNA targeting IDH1]
Flux Pyr.m <−> Ala (A549 cells [1]; Amino acids, exchange flux): 0.00 fmol/cell*hr
Flux Gln −> Glu (A549 cells [1]; Amino acids, net flux): 24.57 fmol/cell*hr
Flux Gln.x −> Gln (A549 cells [1]; Amino acids, net flux): 25.06 fmol/cell*hr
Flux Glu −> Glu.x (A549 cells [1]; Amino acids, net flux): 19.91 fmol/cell*hr
Flux Pyr.m −> Ala (A549 cells [1]; Amino acids, net flux): 0.42 fmol/cell*hr
Flux Glu <−> Akg (A549 cells [1]; [5]): 442.50 fmol/cell*hr
Flux Mal <−> Pyr.m + CO2 (A549 cells [1]; [5]): 1.64 fmol/cell*hr
Flux Oac <−> Asp (A549 cells [1]; [5]): 372.30 fmol/cell*hr
Flux Glu −> Akg (A549 cells [1]; [6]): 4.16 fmol/cell*hr
Flux Mal −> Pyr.m + CO2 (A549 cells [1]; [6]): 3.56 fmol/cell*hr
Flux Oac −> Asp (A549 cells [1]; [6]): 0.60 fmol/cell*hr
Flux Pyr.m + CO2 −> Oac (A549 cells [1]; [6]): 0.00 fmol/cell*hr
Flux 0.6*Asp + 0.5*Glu + 0.42*Ala + 0.5*Gln −> Biomass (A549 cells [1]; Biomass, net flux): 1.00 fmol/cell*hr
Flux AcCoA.c −> Fatty acids (A549 cells [1]; Biomass, net flux): 11.28 fmol/cell*hr
Flux Cit −> AcCoA.c + Oac (A549 cells [1]; Biomass, net flux): 11.28 fmol/cell*hr
Flux P5P −> NTP (A549 cells [1]; Biomass, net flux): 0.50 fmol/cell*hr
Flux 0*Pyr.c −> Pyr.mnt (A549 cells [1]; Dilution/Mixing): 0.82 fmol/cell*hr
Flux 0*Pyr.m −> Pyr.mnt (A549 cells [1]; Dilution/Mixing): 0.18 fmol/cell*hr
Flux 0*Suc −> Suc.mnt (A549 cells [1]; Dilution/Mixing): 0.85 fmol/cell*hr
Flux Suc.d −> Suc.mnt (A549 cells [1]; Dilution/Mixing): 0.15 fmol/cell*hr
Flux Pyr.c <−> Pyr.m (A549 cells [1]; Dilution/Mixing, exchange flux): 49.63 fmol/cell*hr
Flux Pyr.c −> Pyr.m (A549 cells [1]; Dilution/Mixing, net flux): 13.19 fmol/cell*hr
Flux DHAP <−> GAP (A549 cells [1]; Glycolysis, exchange flux): 550.40 fmol/cell*hr
Flux G6P <−> F6P (A549 cells [1]; Glycolysis, exchange flux): 0.00 fmol/cell*hr
Flux GAP <−> 3PG (A549 cells [1]; Glycolysis, exchange flux): 160.00 fmol/cell*hr
Flux Pyr.c <−> Lac (A549 cells [1]; Glycolysis, exchange flux): 695.70 fmol/cell*hr
Flux 3PG −> Pyr.c (A549 cells [1]; Glycolysis, net flux): 217.80 fmol/cell*hr
Flux DHAP −> GAP (A549 cells [1]; Glycolysis, net flux): 107.60 fmol/cell*hr
Flux F6P −> DHAP + GAP (A549 cells [1]; Glycolysis, net flux): 107.60 fmol/cell*hr
Flux G6P −> F6P (A549 cells [1]; Glycolysis, net flux): 102.60 fmol/cell*hr
Flux GAP −> 3PG (A549 cells [1]; Glycolysis, net flux): 217.80 fmol/cell*hr
Flux Glc.x −> G6P (A549 cells [1]; Glycolysis, net flux): 110.60 fmol/cell*hr
Flux Lac −> Lac.x (A549 cells [1]; Glycolysis, net flux): 204.60 fmol/cell*hr
Flux Pyr.c −> Lac (A549 cells [1]; Glycolysis, net flux): 204.60 fmol/cell*hr
Flux P5P + E4P <−> F6P + GAP (A549 cells [1]; [7]): 1.9E+06 fmol/cell*hr
Flux P5P + P5P <−> S7P + GAP (A549 cells [1]; [7]): 6.3E+07 fmol/cell*hr
Flux S7P + GAP <−> F6P + E4P (A549 cells [1]; [7]): 1.1E+06 fmol/cell*hr
Flux G6P −> P5P + CO2 (A549 cells [1]; [8]): 8.01 fmol/cell*hr
Flux P5P + E4P −> F6P + GAP (A549 cells [1]; [8]): 2.50 fmol/cell*hr
Flux P5P + P5P −> S7P + GAP (A549 cells [1]; [8]): 2.50 fmol/cell*hr
Flux S7P + GAP −> F6P + E4P (A549 cells [1]; [8]): 2.50 fmol/cell*hr
Flux Fum <−> Mal (A549 cells [1]; TCA Cycle, exchange flux): 1.6E+07 fmol/cell*hr
Flux Mal <−> Oac (A549 cells [1]; TCA Cycle, exchange flux): 124.70 fmol/cell*hr
Flux Suc <−> Fum (A549 cells [1]; TCA Cycle, exchange flux): 0.29 fmol/cell*hr
Flux Cit <−> Akg + CO2 (A549 cells [1]; TCA Cycle, exchange flux (reductive IDH flux)): 2.39 fmol/cell*hr
Flux AcCoA.m + Oac −> Cit (A549 cells [1]; TCA Cycle, net flux): 16.33 fmol/cell*hr
Flux Akg −> Suc + CO2 (A549 cells [1]; TCA Cycle, net flux): 9.21 fmol/cell*hr
Flux Fum −> Mal (A549 cells [1]; TCA Cycle, net flux): 9.21 fmol/cell*hr
Flux Mal −> Oac (A549 cells [1]; TCA Cycle, net flux): 5.65 fmol/cell*hr
Flux Pyr.m −> AcCoA.m + CO2 (A549 cells [1]; TCA Cycle, net flux): 16.33 fmol/cell*hr
Flux Suc −> Fum (A549 cells [1]; TCA Cycle, net flux): 9.21 fmol/cell*hr
Flux Cit −> Akg + CO2 (A549 cells [1]; TCA Cycle, net flux (IDH)): 5.05 fmol/cell*hr
M3 mass isotopomers derived from [U-13C5]glutamine (reductive carboxylation) (A549 cells [2]): decrease in reductive carboxylation
reductive carboxylation flux (M1 label from [1-13C]glutamine) (HCT116 colon carcinoma): reduces reductive carboxylation flux
reductive carboxylation flux (M1 label from [1-13C]glutamine) [3]: reduces reductive carboxylation flux
reductive carboxylation flux (143B osteosarcoma): reduces reductive carboxylation flux
HRE-driven reporter levels (hypoxia signaling) [4]: does not increase hypoxia signaling and stabilization
